From US12358885B2, “Substituted n-propylamine fused heterocyclic mescaline derivatives” (Enveric Biosciences Canada Inc., priority 2022, dated 2025)
Where two headings read alike, the source gives them in different places.

What was measured:
[1] = biological target: T1, 5-HT2C receptor (Homo sapiens, UniProt P28335); test: Eurofins Cerep competition binding assay at 5-HT2C receptor; conditions: 10 μM test ligand, [125I](±)DOI, recombinant receptor in HEK-293 cells; for inhibition at 10 µM: read-out: HT2C, percent of control-specific binding
T1 construct: host or cells: HEK-293 cells (membrane preparation)
T1 sequence (P28335 33-458): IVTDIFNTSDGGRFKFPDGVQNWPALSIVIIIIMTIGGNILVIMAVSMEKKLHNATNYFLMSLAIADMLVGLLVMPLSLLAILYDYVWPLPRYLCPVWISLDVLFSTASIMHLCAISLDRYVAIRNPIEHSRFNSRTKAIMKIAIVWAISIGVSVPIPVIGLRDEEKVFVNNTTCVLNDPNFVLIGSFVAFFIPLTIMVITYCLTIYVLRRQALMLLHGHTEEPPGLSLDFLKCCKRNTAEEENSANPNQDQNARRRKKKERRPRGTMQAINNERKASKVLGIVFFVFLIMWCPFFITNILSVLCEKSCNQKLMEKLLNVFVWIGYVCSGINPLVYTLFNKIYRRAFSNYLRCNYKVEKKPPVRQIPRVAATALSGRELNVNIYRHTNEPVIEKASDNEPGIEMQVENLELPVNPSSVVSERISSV

[2] = biological target: T2, norepinephrine transporter (NET) (Homo sapiens, UniProt P23975); test: Eurofins Cerep competition binding assay at norepinephrine transporter; conditions: for inhibition at 10 µM: read-out: NET, percent of control-specific binding; for NET, percent of control-specific binding: 10 μM test ligand, [3H]nisoxetine, recombinant transporter in CHO cells
T2 construct: host or cells: CHO cells (membrane preparation)

[3] = biological target: T3, 5-HT2B receptor (Homo sapiens, UniProt P41595); test: Eurofins Cerep competition binding assay at 5-HT2B receptor; conditions: 10 μM test ligand, [3H]mesulergine, recombinant receptor in CHO cells; for inhibition at 10 µM: read-out: HT2B, percent of control-specific binding
T3 construct: host or cells: CHO cells (membrane preparation)

[4] = biological target: T4, 5-HT7 receptor (Homo sapiens, UniProt P34969); test: Eurofins Cerep competition binding assay at 5-HT7 receptor; conditions: 10 μM test ligand, [3H]LSD, recombinant receptor in HEK-293 cells; for inhibition at 10 µM: read-out: HT7, percent of control-specific binding
T4 construct: host or cells: HEK-293 cells (membrane preparation)

[5] = biological target: T5, MT1 receptor (Homo sapiens, UniProt P48039); test: Eurofins Cerep competition binding assay at MT1 receptor; conditions: for inhibition at 10 µM: read-out: MT1, percent of control-specific binding; for MT1, percent of control-specific binding: 10 μM test ligand, [125I]2-iodomelatonin, recombinant receptor in CHO cells
T5 construct: host or cells: CHO cells (membrane preparation)

[6] = biological target: T6, dopamine transporter (DAT) (Homo sapiens, UniProt Q01959); test: Eurofins Cerep competition binding assay at dopamine transporter; conditions: for inhibition at 10 µM: read-out: DAT, percent of control-specific binding; for DAT, percent of control-specific binding: 10 μM test ligand, [3H]BTCP, recombinant transporter in CHO cells
T6 construct: host or cells: CHO cells (membrane preparation)

[7] = biological target: T7, D3 receptor (Homo sapiens, UniProt P35462); test: Eurofins Cerep competition binding assay at D3 receptor; conditions: 10 μM test ligand, [3H]methylspiperone, recombinant receptor in CHO cells; for inhibition at 10 µM: read-out: D3, percent of control-specific binding
T7 construct: host or cells: CHO cells (membrane preparation)

[8] = biological target: T8, alpha2A receptor (Homo sapiens, UniProt P08913); test: Eurofins Cerep competition binding assay at alpha2A receptor; conditions: 10 μM test ligand; [3H]RX 821002; recombinant receptor in CHO cells
T8 construct: host or cells: CHO cells (membrane preparation)
T8 sequence (P08913 1-465): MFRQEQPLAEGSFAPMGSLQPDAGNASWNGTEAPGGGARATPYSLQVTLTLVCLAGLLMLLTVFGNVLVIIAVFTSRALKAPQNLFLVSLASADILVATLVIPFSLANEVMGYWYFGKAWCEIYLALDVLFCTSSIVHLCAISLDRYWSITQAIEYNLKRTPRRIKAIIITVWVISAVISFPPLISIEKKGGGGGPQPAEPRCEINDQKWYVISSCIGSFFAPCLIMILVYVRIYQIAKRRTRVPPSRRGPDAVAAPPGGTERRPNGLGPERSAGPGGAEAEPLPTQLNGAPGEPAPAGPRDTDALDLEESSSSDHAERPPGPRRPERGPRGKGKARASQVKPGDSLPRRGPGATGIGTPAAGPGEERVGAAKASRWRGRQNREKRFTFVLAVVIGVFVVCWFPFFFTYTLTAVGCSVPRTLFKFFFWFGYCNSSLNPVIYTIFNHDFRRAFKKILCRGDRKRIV

[9] = biological target: T9, serotonin transporter (SERT) (Homo sapiens, UniProt P31645); test: biochemical; type: binding; conditions: for inhibition at 10 µM: read-out: SERT, percent of control-specific binding; for SERT, percent of control-specific binding: 10 µM
T9 construct: host or cells: CHO cells (membrane preparation)

[10] = biological target: T10, 5-HT2A receptor (Homo sapiens, UniProt P28223); test: biochemical; type: binding; conditions: for inhibition at 10 µM: read-out: HT2A, percent of control-specific binding
T10 construct: host or cells: HEK-293 cells (membrane preparation)

[11] = biological target: T11, 5-HT1A receptor (Homo sapiens, UniProt P08908); test: Eurofins Cerep competition binding assay at 5-HT1A receptor; conditions: 10 μM test ligand, [3H]8-OH-DPAT, recombinant receptor in HEK-293 cells; for inhibition at 10 µM: read-out: HT1A, percent of control-specific binding
T11 construct: purchased Perkin Elmer 6110501400UA
T11 sequence (P08908 1-422): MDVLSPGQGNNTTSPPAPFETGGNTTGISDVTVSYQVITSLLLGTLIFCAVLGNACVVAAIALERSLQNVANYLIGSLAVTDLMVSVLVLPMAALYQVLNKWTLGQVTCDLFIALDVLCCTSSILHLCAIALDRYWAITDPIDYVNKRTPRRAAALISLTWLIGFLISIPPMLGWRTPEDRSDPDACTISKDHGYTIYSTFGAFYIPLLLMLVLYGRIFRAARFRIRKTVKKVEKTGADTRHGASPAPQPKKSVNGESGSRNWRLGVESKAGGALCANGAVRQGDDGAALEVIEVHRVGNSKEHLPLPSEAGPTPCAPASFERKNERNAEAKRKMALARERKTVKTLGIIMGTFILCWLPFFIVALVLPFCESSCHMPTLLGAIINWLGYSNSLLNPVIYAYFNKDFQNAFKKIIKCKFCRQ

[12] = biological target: T10, 5-HT2A receptor; test: biochemical; type: binding
[13] = biological target: T11, 5-HT1A receptor; test: Functional 5-HT1A receptor cAMP assay in CHO-K1/5-HT1A/Gα15 cells; type: cell-based
[14] = biological target: T11, 5-HT1A receptor; test: 5-HT1A receptor radioligand competition assay (SPA, 8-hydroxy-DPAT [3H]); type: binding; conditions: 0.5 nM hot 8-hydroxy-DPAT, membranes containing 5-HT1A
[15] = 10 μM test molecule, [125I](±)DOI, recombinant receptor in HEK-293 cells
[16] = 1 nM [3H]ketanserin, membranes containing 5-HT2A, SPA

T5 sequence (P48039 whole entry): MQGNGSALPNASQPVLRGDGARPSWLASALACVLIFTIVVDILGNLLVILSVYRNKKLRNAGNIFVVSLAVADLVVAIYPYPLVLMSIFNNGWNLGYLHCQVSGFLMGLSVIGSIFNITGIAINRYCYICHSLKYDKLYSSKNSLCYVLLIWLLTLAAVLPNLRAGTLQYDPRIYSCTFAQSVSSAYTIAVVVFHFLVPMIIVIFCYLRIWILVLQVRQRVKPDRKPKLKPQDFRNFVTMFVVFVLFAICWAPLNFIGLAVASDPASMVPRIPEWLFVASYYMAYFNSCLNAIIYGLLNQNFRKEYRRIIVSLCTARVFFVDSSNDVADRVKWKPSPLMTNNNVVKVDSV
T9 sequence (P31645 whole entry): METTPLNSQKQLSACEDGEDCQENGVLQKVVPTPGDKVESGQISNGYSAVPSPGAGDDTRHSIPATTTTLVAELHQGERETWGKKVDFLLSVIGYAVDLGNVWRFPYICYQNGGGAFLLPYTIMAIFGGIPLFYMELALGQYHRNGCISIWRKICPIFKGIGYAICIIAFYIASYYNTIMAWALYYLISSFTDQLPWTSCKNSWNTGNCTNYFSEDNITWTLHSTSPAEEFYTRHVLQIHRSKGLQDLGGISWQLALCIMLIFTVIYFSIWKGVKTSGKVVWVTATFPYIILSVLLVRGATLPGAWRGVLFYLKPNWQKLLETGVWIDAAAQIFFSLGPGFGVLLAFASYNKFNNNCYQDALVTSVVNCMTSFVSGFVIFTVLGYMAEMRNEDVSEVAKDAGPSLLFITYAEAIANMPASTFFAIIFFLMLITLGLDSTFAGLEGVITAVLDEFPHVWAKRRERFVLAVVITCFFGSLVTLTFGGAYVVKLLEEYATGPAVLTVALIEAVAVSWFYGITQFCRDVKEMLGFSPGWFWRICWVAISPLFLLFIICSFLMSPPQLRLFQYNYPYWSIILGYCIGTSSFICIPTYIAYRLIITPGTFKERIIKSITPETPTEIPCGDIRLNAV
T10 sequence (P28223 whole entry): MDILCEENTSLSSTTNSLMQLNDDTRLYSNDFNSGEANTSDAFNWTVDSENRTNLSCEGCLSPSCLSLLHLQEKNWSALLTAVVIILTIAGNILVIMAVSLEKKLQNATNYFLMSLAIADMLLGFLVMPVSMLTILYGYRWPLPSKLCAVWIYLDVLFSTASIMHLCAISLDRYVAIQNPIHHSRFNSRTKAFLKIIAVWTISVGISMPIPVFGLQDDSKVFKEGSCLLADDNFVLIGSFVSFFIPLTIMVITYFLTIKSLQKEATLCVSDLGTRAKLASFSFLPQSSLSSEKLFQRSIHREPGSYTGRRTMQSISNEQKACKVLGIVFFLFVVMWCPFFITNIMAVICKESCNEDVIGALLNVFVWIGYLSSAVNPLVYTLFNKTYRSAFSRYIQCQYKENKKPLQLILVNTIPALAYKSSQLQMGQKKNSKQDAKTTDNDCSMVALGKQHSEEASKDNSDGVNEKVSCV
T6 sequence (Q01959 whole entry): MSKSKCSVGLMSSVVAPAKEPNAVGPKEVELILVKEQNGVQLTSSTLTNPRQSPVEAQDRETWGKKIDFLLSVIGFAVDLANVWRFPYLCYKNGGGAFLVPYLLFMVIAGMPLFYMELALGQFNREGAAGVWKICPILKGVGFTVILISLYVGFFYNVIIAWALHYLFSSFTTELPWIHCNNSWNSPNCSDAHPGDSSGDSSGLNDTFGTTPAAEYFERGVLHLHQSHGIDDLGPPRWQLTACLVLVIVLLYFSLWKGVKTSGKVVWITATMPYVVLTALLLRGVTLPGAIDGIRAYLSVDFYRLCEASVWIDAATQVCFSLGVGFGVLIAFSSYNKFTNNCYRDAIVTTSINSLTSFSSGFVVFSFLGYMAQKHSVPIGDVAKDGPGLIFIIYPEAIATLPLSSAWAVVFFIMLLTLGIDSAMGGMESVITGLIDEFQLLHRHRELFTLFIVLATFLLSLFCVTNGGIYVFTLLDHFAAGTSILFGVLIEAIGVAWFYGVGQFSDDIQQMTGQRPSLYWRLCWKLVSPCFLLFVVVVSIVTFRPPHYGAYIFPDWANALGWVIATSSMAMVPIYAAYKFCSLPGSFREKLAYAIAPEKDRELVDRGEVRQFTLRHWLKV
T2 sequence (P23975 whole entry): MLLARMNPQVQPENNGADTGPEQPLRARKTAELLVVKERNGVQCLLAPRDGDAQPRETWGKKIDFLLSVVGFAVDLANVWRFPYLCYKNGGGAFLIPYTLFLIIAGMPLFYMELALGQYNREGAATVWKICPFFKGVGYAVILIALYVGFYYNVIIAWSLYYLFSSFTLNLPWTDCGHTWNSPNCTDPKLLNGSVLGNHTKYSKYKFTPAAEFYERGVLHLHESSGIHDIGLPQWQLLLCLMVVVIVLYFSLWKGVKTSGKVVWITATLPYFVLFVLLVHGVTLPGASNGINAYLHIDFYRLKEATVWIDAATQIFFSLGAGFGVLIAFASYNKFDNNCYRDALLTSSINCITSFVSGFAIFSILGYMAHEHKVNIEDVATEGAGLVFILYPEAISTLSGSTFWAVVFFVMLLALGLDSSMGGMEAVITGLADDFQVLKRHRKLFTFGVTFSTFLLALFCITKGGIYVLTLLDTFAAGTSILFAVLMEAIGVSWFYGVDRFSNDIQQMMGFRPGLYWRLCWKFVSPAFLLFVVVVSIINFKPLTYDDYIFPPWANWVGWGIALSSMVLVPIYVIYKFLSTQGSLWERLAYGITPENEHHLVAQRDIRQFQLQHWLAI
T3 sequence (P41595 whole entry): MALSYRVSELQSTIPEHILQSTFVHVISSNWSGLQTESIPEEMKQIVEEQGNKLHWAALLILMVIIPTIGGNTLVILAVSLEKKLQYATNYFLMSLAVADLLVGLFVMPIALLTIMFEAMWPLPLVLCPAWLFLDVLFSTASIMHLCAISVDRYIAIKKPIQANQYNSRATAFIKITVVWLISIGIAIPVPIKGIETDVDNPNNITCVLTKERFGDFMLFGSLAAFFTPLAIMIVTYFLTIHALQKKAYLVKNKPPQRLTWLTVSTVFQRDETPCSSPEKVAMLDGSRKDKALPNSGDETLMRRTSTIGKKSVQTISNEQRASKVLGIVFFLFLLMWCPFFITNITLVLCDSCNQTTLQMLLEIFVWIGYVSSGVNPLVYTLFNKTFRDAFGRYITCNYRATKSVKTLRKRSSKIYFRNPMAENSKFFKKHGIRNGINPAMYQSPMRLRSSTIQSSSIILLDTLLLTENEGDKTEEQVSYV
T4 sequence (P34969 whole entry): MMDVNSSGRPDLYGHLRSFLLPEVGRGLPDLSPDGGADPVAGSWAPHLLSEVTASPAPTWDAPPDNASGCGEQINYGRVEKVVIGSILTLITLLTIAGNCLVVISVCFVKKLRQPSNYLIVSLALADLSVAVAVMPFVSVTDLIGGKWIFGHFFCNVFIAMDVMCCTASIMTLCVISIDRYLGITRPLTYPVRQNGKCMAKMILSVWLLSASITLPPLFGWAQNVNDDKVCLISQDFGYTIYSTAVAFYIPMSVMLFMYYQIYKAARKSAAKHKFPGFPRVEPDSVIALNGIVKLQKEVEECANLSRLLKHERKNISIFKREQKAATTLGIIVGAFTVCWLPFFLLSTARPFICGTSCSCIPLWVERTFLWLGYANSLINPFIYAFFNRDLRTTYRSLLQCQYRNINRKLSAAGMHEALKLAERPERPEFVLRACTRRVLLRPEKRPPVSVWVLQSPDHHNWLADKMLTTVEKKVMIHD
T7 sequence (P35462 whole entry): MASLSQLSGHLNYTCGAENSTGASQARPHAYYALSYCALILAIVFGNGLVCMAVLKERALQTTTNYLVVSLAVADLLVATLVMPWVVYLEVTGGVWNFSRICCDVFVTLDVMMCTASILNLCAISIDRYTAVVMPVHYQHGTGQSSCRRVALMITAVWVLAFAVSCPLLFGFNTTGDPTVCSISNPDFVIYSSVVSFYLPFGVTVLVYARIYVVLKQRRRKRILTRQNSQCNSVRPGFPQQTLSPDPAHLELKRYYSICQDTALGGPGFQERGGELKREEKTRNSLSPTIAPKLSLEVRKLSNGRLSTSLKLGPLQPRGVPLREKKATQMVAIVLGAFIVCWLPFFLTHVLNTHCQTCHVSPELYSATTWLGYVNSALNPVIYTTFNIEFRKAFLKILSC

`C/C(=C\c1ccc2c(c1)OCO2)CN1CCCC1` [B(II)] was tested, and the inhibition at 10 µM [1] was 45%, the inhibition at 10 µM [2] was 43% and the inhibition at 10 µM [3] was 87%. The inhibition at 10 µM [4] was 68%, the inhibition at 10 µM [5] was 20% and the inhibition at 10 µM [6] was 69%. For the same molecule, the inhibition at 10 µM [7] was 55%, the “α-2A, percent of control-specific binding” value (shortened to “α-2A, percent”) [8] was 75% and the inhibition at 10 µM [9] was 95%. The inhibition at 10 µM [10, 15] was 53%, the inhibition at 10 µM [11] was 79% and the Ki [12, 16] was 7 µM. For the same molecule, the EC50 [13] was 40.1 µM and the Ki [14] was 824 µM.
`CCN(CC)C/C=C/c1ccc2c(c1)OCO2` [D(I)] gave an inhibition at 10 µM [1] of 33%, an inhibition at 10 µM [2] of 17% and an inhibition at 10 µM [3] of 58%. The inhibition at 10 µM [4] was 18%, the inhibition at 10 µM [5] was 10% and the inhibition at 10 µM [6] was 39%. For the same molecule, the inhibition at 10 µM [7] was 21%, the “α-2A, percent” value [8] was 34% and the inhibition at 10 µM [9] was 70%. For the same molecule, the inhibition at 10 µM [10, 15] was 32%, the inhibition at 10 µM [11] was 49% and the Ki [12, 16] was 21 µM. The EC50 [13] was greater than 1000 µM.
For `CNC(C)Cc1ccc2c(c1)OCO2` (stereo not drawn) [MDMA, reference compound], the “HT2C, percent of control-specific binding” value [1] was 96%, the “NET, percent of control-specific binding” value [2] was 3% and the “HT2B, percent of control-specific binding” value [3] was 85%. For the same molecule, the “HT7, percent of control-specific binding” value [4] was 58%, the “MT1, percent of control-specific binding” value [5] was 1% and the “DAT, percent of control-specific binding” value [6] was 28%. The “D3, percent of control-specific binding” value [7] was 18%, the “α-2A, percent” value [8] was 27% and the “SERT, percent of control-specific binding” value [9] was 46%. For the same molecule, the “HT2A, percent of control-specific binding” value ([10]; 10 µM) was 74%, the “HT1A, percent of control-specific binding” value [11] was 68% and the Ki [12] was 39.9 µM. The EC50 ([13]; reduction of cAMP in cells stimulated with 4 μM forskolin, CHO-K1/5-HT1A/Gα15, read-out: 5-HT1A, EC50) was greater than 1000 µM and the Ki [14] was 11 µM.
With `CCOc1c(OC)cc(CCN)cc1OC` [escaline] the “HT2C, percent of control-specific binding” value [1] was 95%, the “NET, percent of control-specific binding” value [2] was 6% and the “HT2B, percent of control-specific binding” value [3] was 81%. For the same molecule, the “HT7, percent of control-specific binding” value [4] was 16%, the “MT1, percent of control-specific binding” value [5] was 0% and the “DAT, percent of control-specific binding” value [6] was 0%. For the same molecule, the “D3, percent of control-specific binding” value [7] was 0%, the “α-2A, percent” value [8] was 45% and the “SERT, percent of control-specific binding” value [9] was 0%. The “HT2A, percent of control-specific binding” value [10, 15] was 84%, the “HT1A, percent of control-specific binding” value [11] was 44% and the Ki [12, 16] was 61 µM. For the same molecule, the Ki [14] was 12.4 µM.
